In patent US10239883B2, “4-imidazopyridazin-1-yl-benzamides as BTK inhibitors” (Merck Sharp & Dohme B.V., priority 2011, dated 2019):

Target: Btk enzyme (His-Btk) (Homo sapiens (Human), UniProt Q06187)
Experiment: Btk enzyme activity, IMAP fluorescence polarization assay
Details: 60 min pre-incubation, 5 μM ATP, bin bound in nM

Sequence of Btk enzyme (His-Btk) (Q06187 whole entry): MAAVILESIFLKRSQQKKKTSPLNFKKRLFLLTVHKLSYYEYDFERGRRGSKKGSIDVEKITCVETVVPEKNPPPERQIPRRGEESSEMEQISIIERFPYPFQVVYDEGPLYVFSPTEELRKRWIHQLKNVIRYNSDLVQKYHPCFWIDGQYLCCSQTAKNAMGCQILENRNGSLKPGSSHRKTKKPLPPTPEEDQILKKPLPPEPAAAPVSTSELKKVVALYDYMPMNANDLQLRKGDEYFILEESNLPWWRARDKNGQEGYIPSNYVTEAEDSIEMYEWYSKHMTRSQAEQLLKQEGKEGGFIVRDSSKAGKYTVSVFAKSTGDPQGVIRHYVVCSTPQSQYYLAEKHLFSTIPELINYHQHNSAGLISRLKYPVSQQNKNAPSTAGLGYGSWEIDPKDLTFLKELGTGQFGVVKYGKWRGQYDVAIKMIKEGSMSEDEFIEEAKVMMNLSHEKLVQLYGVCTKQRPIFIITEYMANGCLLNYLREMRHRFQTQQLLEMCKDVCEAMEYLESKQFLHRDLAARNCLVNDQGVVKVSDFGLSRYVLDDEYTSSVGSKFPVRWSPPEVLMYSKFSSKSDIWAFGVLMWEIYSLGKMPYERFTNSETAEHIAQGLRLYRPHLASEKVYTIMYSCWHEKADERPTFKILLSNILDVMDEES

| Compound | EC50 Btk activity values [nM] |
| --- | --- |
| COC/C=C/C(=O)N1CCC[C@H]1c1nc(-c2ccc(C(=O)Nc3cc(C(C)C)ccn3)cc2)c2c(N)nccn12 [Example 58, (S,E)-4-(8-amino-3-(1-(4-methoxybut-2-enoyl)pyrrolidin-2-yl)imidazo[1,5-a]pyrazin-1-yl)-N-(4-isopropylpyridin-2-yl)benzamide] | <100 |
| COC/C=C/C(=O)NCc1nc(-c2ccc(C(=O)Nc3ccccn3)cc2)c2c(N)nccn12 [Example 95, (E)-4-(8-amino-3-((4-methoxybut-2-enamido)methyl)imidazo[1,5-a]pyrazin-1-yl)-N-(pyridin-2-yl)benzamide] | <100 |
| CCc1ccnc(NC(=O)c2ccc(-c3nc([C@@H]4CCCN4C(=O)/C=C/COC)n4ccnc(N)c34)cc2)c1 [Example 11, (S,E)-4-(8-Amino-3-(1-(4-methoxybut-2-enoyl)pyrrolidin-2-yl)imidazo[1,5-a]pyrazin-1-yl)-N-(4-ethylpyridin-2-yl)benzamide] | <100 |
| COC/C=C/C(=O)N1CCC[C@H]1c1nc(-c2ccc(C(=O)Nc3nc4c(s3)CCCC4)cc2)c2c(N)nccn12 [Example 82, (S,E)-4-(8-amino-3-(1-(4-methoxybut-2-enoyl)pyrrolidin-2-yl)imidazo[1,5-a]pyrazin-1-yl)-N-(4,5,6,7-tetrahydrobenzo[d]thiazol-2-yl)benzamide] | <100 |
| CC#CC(=O)N1CCC[C@H]1c1nc(-c2ccc(C(=O)Nc3ccccn3)c(OC)c2)c2c(N)nccn12 [Example 99, (S)-4-(8-amino-3-(1-but-2-ynoylpyrrolidin-2-yl)imidazo[1,5-a]pyrazin-1-yl)-2-methoxy-N-(pyridin-2-yl)benzamide] | <100 |
| COC/C=C/C(=O)N1CCC[C@H]1c1nc(-c2ccc(C(=O)Nc3cc(C)ccn3)cc2)c2c(N)nccn12 [Example 57, (S,E)-4-(8-amino-3-(1-(4-methoxybut-2-enoyl)pyrrolidin-2-yl)imidazo[1,5-a]pyrazin-1-yl)-N-(4-methylpyridin-2-yl)benzamide] | <100 |
| CN(C)CC#CC(=O)N1CCC[C@H]1c1nc(-c2ccc(C(=O)Nc3ccccn3)cc2)c2c(N)nccn12 [Example 40, (S)-4-(8-Amino-3-(1-(4-(dimethylamino)but-2-ynoyl)pyrrolidin-2-yl)imidazo[1,5-a]pyrazin-1-yl)-N-(pyridin-2-yl)benzamide] | <100 |
| CC#CC(=O)N(C)[C@@H](C)c1nc(-c2ccc(C(=O)Nc3cc(CCC)ccn3)cc2)c2c(N)nccn12 [Example 113, (S)-4-(8-amino-3-(1-(N-methylbut-2-ynamido)ethyl)imidazo[1,5-a]pyrazin-1-yl)-N-(4-propylpyridin-2-yl)benzamide] | <100 |
| CN(C)C/C=C/C(=O)NCc1nc(-c2ccc(C(=O)Nc3ccccn3)cc2)c2c(N)nccn12 [Example 69, (E)-4-(8-amino-3-((4-(dimethylamino)but-2-enamido)methyl)imidazo[1,5-a]pyrazin-1-yl)-N-(pyridin-2-yl)benzamide] | <100 |

Other lines, results leading:

| EC50 Btk activity values [nM] | Compound |
| --- | --- |
| <100 | CC#CC(=O)N1CCC[C@H]1c1nc(-c2ccc(C(=O)Nc3cc(N4CCCC4)ccn3)cc2)c2c(N)nccn12 [Example 96, (S)-4-(8-amino-3-(1-but-2-ynoylpyrrolidin-2-yl)imidazo[1,5-a]pyrazin-1-yl)-N-(4-(pyrrolidin-1-yl)pyridin-2-yl)benzamide] |
| <100 | Nc1nccn2c([C@@H]3CCCN3C(=O)c3ccnc(Cl)n3)nc(-c3ccc(C(=O)Nc4nc5c(s4)CCCC5)cc3)c12 [Example 71, (S)-4-(8-amino-3-(1-(2-chloropyrimidine-4-carbonyl)pyrrolidin-2-yl)imidazo[1,5-a]pyrazin-1-yl)-N-(4,5,6,7-tetrahydrobenzo[d]thiazol-2-yl)benzamide] |
| <100 | Nc1nccn2c([C@@H]3CCCCN3C(=O)c3ccnc(Cl)n3)nc(-c3ccc(C(=O)Nc4cc(F)ccn4)cc3)c12 [Example 80, (S)-4-(8-amino-3-(1-(2-chloropyrimidine-4-carbonyl)piperidin-2-yl)imidazo[1,5-a]pyrazin-1-yl)-N-(4-fluoropyridin-2-yl)benzamide] |
| <100 | Cc1cc(C(=O)Nc2ccccn2)ccc1-c1nc([C@@H]2CCCCN2C(=O)c2ccnc(Cl)n2)n2ccnc(N)c12 [Example 56, 4-(8-amino-3-((S)-1-(2-chloropyrimidine-4-carbonyl)piperidin-2-yl)imidazo[1,5-a]pyrazin-1-yl)-3-methyl-N-(pyridin-2-yl)benzamide] |
| <100 | COC/C=C/C(=O)N1CCCCCC1c1nc(-c2ccc(C(=O)Nc3ccccn3)cc2)c2c(N)nccn12 (stereo not shown) [Example 97, (E)-4-(8-amino-3-(1-(4-methoxybut-2-enoyl)azepan-2-yl)imidazo[1,5-a]pyrazin-1-yl)-N-(pyridin-2-yl)benzamide] |
| <100 | Nc1nccn2c([C@@H]3CCCN3C(=O)c3ccnc(Cl)n3)nc(-c3ccc(C(=O)Nc4cc(C(F)(F)F)ccn4)cc3)c12 [Example 119, (S)-4-(8-amino-3-(1-(2-chloropyrimidine-4-carbonyl)pyrrolidin-2-yl)imidazo[1,5-a]pyrazin-1-yl)-N-(4-(trifluoromethyl)pyridin-2-yl)benzamide] |

Same assay, conditions: 60 min pre-incubation, 5 μM ATP, bin bound in μM

| Compound | EC50 Btk activity values [nM] |
| --- | --- |
| COC/C=C/C(=O)N1CCC[C@H]1c1nc(-c2ccc(C(=O)Nc3cc(F)ccn3)cc2)c2c(N)nccn12 [Example 53, (S,E)-4-(8-amino-3-(1-(4-methoxybut-2-enoyl)pyrrolidin-2-yl)imidazo[1,5-a]pyrazin-1-yl)-N-(4-fluoropyridin-2-yl)benzamide] | <1000 |
| C=CC(=O)N1CCCC[C@H]1c1nc(-c2ccc(C(=O)Nc3ccccn3)cc2C)c2c(N)nccn12 [Example 68, 4-(3-((S)-1-acryloylpiperidin-2-yl)-8-aminoimidazo[1,5-a]pyrazin-1-yl)-3-methyl-N-(pyridin-2-yl)benzamide] | <1000 |
| N#CCN1CCC[C@H]1c1nc(-c2ccc(C(=O)Nc3ccccn3)cc2)c2c(N)nccn12 [Example 94, (S)-4-(8-amino-3-(1-(cyanomethyl)pyrrolidin-2-yl)imidazo[1,5-a]pyrazin-1-yl)-N-(pyridin-2-yl)benzamide] | <1000 |
| COC/C=C/C(=O)N1CCCC[C@H]1c1nc(-c2ccc(C(=O)Nc3ccon3)cc2)c2c(N)nccn12 [Example 54, (S,E)-4-(8-amino-3-(1-(4-methoxybut-2-enoyl)piperidin-2-yl)imidazo[1,5-a]pyrazin-1-yl)-N-(isoxazol-3-yl)benzamide] | <1000 |

Next, values leading:

| EC50 Btk activity values [nM] | Compound |
| --- | --- |
| <1000 | Nc1nccn2c([C@@H]3CCCN3C(=O)/C=C/c3ccccc3)nc(-c3ccc(C(=O)Nc4ccccn4)cc3)c12 [Example 104, (S,E)-4-(8-amino-3-(1-cinnamoylpyrrolidin-2-yl)imidazo[1,5-a]pyrazin-1-yl)-N-(pyridin-2-yl)benzamide] |
| <1000 | Nc1nccn2c([C@@H]3CCCCN3C(=O)c3ccnc(Cl)n3)nc(-c3ccc(C(=O)Nc4cccnn4)cc3)c12 [Example 74, (S)-4-(8-amino-3-(1-(2-chloropyrimidine-4-carbonyl)piperidin-2-yl)imidazo[1,5-a]pyrazin-1-yl)-N-(pyridazin-3-yl)benzamide] |

Target: Lck enzyme (Homo sapiens (Human), UniProt P06239)
Sequence (P06239 whole entry): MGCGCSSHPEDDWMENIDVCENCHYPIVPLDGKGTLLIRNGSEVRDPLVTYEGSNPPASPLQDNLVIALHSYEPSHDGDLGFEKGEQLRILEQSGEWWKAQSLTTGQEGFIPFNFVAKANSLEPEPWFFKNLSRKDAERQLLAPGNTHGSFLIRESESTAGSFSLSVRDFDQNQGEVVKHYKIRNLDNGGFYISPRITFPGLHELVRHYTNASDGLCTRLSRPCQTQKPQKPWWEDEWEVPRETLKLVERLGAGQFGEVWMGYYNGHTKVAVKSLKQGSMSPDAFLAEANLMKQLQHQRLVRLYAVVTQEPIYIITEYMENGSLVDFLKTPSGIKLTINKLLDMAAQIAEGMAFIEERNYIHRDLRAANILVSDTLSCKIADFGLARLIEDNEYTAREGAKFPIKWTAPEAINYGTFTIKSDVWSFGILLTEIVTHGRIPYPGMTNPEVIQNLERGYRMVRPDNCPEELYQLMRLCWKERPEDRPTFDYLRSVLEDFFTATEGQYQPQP
Experiment: Lck enzyme activity, IMAP fluorescence polarization assay
Details: 60 min pre-incubation, 6 μM ATP, bin bound in μM

| Compound | EC50 Lck activity values [µM] |
| --- | --- |
| CCCc1ccnc(NC(=O)c2ccc(-c3nc([C@H](C)N(C)C(=O)/C=C/CN(C)C)n4ccnc(N)c34)cc2)c1 [Example 76, (S,E)-4-(8-amino-3-(1-(4-(dimethylamino)-N-methylbut-2-enamido)ethyl)imidazo[1,5-a]pyrazin-1-yl)-N-(4-propylpyridin-2-yl)benzamide] | <1 |
| C=CC(=O)N1CCC[C@H]1c1nc(-c2ccc(C(=O)Nc3cc(C(F)(F)F)ccn3)cc2)c2c(N)nccn12 [Example 62, (S)-4-(3-(1-acryloylpyrrolidin-2-yl)-8-aminoimidazo[1,5-a]pyrazin-1-yl)-N-(4-(trifluoromethyl)pyridin-2-yl)benzamide] | <1 |

The remaining lines, values ahead:

| EC50 Lck activity values [µM] | Compound |
| --- | --- |
| <1 | C=CC(=O)N1CCC[C@H]1c1nc(-c2ccc(C(=O)Nc3cc(C#N)ccn3)cc2)c2c(N)nccn12 [Example 122, (S)-4-(3-(1-acryloylpyrrolidin-2-yl)-8-aminoimidazo[1,5-a]pyrazin-1-yl)-N-(4-cyanopyridin-2-yl)benzamide] |
| <1 | C=CC(=O)N1CCC[C@H]1c1nc(-c2ccc(C(=O)Nc3cc(C)ccn3)cc2)c2c(N)nccn12 [Example 124, (S)-4-(3-(1-acryloylpyrrolidin-2-yl)-8-aminoimidazo[1,5-a]pyrazin-1-yl)-N-(4-methylpyridin-2-yl)benzamide] |
| <1 | CC#CC(=O)N1CCC[C@H]1c1nc(-c2ccc(C(=O)Nc3cc(-c4ccccc4)ccn3)cc2)c2c(N)nccn12 [Example 132, (S)-4-(8-amino-3-(1-but-2-ynoylpyrrolidin-2-yl)imidazo[1,5-a]pyrazin-1-yl)-N-(4-phenylpyridin-2-yl)benzamide] |
| <1 | C=CC(=O)N1CCC[C@H]1c1nc(-c2ccc(C(=O)Nc3cc(-c4ccccc4)ccn3)cc2)c2c(N)nccn12 [Example 133, (S)-4-(3-(1-acryloylpyrrolidin-2-yl)-8-aminoimidazo[1,5-a]pyrazin-1-yl)-N-(4-phenylpyridin-2-yl)benzamide] |
| <1 | CC#CC(=O)N1CCCC[C@H]1c1nc(-c2ccc(C(=O)Nc3cc(CCC)ccn3)cc2)c2c(N)nccn12 [Example 64, (S)-4-(8-amino-3-(1-but-2-ynoylpiperidin-2-yl)imidazo[1,5-a]pyrazin-1-yl)-N-(4-propylpyridin-2-yl)benzamide] |
| <1 | Nc1nccn2c([C@@H]3CCCN3C(=O)/C=C/c3ccccc3)nc(-c3ccc(C(=O)Nc4ccccn4)cc3)c12 [Example 104, (S,E)-4-(8-amino-3-(1-cinnamoylpyrrolidin-2-yl)imidazo[1,5-a]pyrazin-1-yl)-N-(pyridin-2-yl)benzamide] |

Target: Lyn enzyme (Homo sapiens (Human), UniProt P07948)
Sequence (P07948 whole entry): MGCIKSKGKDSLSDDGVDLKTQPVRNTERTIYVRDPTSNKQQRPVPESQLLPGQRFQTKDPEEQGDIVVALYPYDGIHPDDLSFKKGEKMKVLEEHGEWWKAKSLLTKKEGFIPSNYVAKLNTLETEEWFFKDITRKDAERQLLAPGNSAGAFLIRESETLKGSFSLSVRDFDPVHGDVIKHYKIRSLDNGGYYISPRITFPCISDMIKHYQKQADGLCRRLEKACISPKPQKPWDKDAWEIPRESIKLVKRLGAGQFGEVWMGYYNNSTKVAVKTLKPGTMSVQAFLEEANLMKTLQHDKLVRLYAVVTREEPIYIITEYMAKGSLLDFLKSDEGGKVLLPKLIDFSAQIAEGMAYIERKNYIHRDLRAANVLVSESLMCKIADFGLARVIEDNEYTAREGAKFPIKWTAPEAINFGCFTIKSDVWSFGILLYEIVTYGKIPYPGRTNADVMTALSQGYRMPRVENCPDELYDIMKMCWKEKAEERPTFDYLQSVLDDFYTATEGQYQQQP
Experiment: Lyn enzyme activity, IMAP fluorescence polarization assay
Details: IMAP; 60 min pre-incubation; 2 μM ATP; bin bound in μM

| EC50 Lyn activity values [µM] | Compound |
| --- | --- |
| <1 | C=CC(=O)N1CCC[C@H]1c1nc(-c2ccc(C(=O)Nc3cc(C)ccn3)cc2)c2c(N)nccn12 [Example 124, (S)-4-(3-(1-acryloylpyrrolidin-2-yl)-8-aminoimidazo[1,5-a]pyrazin-1-yl)-N-(4-methylpyridin-2-yl)benzamide] |
| <1 | C=CC(=O)N1CCC[C@H]1c1nc(-c2ccc(C(=O)Nc3cc(-c4ccccc4)ccn3)cc2)c2c(N)nccn12 [Example 133, (S)-4-(3-(1-acryloylpyrrolidin-2-yl)-8-aminoimidazo[1,5-a]pyrazin-1-yl)-N-(4-phenylpyridin-2-yl)benzamide] |
